How the values were obtained:
[1] = target: T1, Metabotropic glutamate receptor 5 (Rattus norvegicus, UniProt P31424); assay: Concentration required for 50% inhibition of rat metabotropic glutamate receptor 5 was determined using inositol phosphate hydrolysis assay
[2] = target: T1, Metabotropic glutamate receptor 5; assay: In vitro binding affinity of compound towards rat metabotropic glutamate receptor 5 was determined by displacement of [3H]M-MPEP from rat whole brain

T1 sequence (P31424 whole entry): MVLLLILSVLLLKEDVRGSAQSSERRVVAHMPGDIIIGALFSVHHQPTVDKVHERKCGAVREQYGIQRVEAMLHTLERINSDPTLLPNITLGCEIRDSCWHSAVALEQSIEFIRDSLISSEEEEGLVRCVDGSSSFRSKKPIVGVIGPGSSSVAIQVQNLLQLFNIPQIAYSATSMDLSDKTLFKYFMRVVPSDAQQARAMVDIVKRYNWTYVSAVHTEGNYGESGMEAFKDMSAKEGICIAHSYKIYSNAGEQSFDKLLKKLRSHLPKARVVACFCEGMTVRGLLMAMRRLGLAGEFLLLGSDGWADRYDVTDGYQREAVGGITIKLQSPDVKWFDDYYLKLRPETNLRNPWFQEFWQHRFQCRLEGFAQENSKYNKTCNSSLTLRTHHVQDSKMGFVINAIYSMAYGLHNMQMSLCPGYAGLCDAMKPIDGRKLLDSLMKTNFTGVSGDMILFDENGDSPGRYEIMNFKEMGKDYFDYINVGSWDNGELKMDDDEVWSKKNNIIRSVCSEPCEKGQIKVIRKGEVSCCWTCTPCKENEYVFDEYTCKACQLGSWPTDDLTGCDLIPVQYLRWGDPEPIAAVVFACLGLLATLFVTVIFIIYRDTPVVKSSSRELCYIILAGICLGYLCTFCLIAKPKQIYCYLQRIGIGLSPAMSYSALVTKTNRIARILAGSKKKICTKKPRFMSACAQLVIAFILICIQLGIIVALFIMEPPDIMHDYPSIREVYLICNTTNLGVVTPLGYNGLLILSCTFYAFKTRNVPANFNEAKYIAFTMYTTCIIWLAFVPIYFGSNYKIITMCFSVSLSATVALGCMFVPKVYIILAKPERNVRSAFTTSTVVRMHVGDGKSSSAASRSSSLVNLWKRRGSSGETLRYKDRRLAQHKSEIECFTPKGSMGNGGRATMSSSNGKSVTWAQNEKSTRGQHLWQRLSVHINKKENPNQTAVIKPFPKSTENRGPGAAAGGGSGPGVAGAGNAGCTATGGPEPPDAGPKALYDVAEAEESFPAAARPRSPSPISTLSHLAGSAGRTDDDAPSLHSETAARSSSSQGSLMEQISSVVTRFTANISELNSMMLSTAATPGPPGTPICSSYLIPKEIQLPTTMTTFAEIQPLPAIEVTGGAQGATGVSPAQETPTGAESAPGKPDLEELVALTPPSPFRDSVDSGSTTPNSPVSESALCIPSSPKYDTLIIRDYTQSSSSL

SMILES | IC50 [1] [nM] | Ki [2] [nM]
Cc1cccc(C#Cc2cccc(OC(=O)c3ccccc3)c2)n1 | 1500 | –
Cc1cccc(C#Cc2cccc(OCC3CC3)c2)n1 | 420 | –
Cc1cccc(C#Cc2cccc(N)c2)n1 | 188 | –
Cc1cccc(C#Cc2cccc(OC(=O)c3ccco3)c2)n1 | 1010 | –
Cc1cccc(C#Cc2cccc(OS(C)(=O)=O)c2)n1 | 180 | –
Cc1cccc(C#Cc2cccc(-c3ccco3)c2)n1 | 371 | 36
Cc1cccc(C#Cc2cncc(-c3ccco3)c2)n1 | 205 | 6.5
Cc1cccc(C#Cc2cccc(OC(=O)Cc3ccccc3)c2)n1 | 740 | –
COC(=O)COc1cccc(C#Cc2cccc(C)n2)c1 | 2400 | –
Cc1cccc(C#Cc2cccc(OCCc3ccc(F)cc3)c2)n1 | 2050 | –
Cc1cccc(C#Cc2cccc(OCc3cccc(I)c3)c2)n1 | 1980 | –
Cc1cccc(C#Cc2cccc(OC(=O)CCCc3ccccc3)c2)n1 | 1170 | –
Cc1cccc(C#Cc2cncc(-c3cccc(C)n3)c2)n1 | 257 | 13
Cc1cccc(C#Cc2cccc(C#N)c2)n1 | 5 | –
Cc1cccc(C#Cc2cccc(-c3cccs3)c2)n1 | 656 | 147
CC(=O)c1cccc(C#Cc2cccc(C)n2)c1 | 146 | –
Cc1cccc(C#Cc2cccc(OC(=O)CCc3ccccc3)c2)n1 | 890 | –
Cc1cccc(C#Cc2cncc(-c3ccccc3)c2)n1 | 20 | 1.7

SMILES | IC50 [1] [nM] | Ki [2] [nM]
Cc1cccc(C#Cc2cccc(OCCc3ccccc3)c2)n1 | 1590 | –
COc1cccc(C#Cc2cccc(C)n2)c1 [M-MPEP] | 8 | –
Cc1cccc(C#Cc2cccc([N+](=O)[O-])c2)n1 | 13 | –
COc1cccc(-c2cncc(C#Cc3cccc(C)n3)c2)c1 | 282 | 74
Cc1cccc(C#Cc2cccc(OCCCc3ccccc3)c2)n1 | 1190 | –
Cc1cccc(C#Cc2cccc(OCCCCc3ccccc3)c2)n1 | 1160 | –
Cc1cccc(C#Cc2cccc(OC(=O)c3cccc(I)c3)c2)n1 | 1100 | –
Cc1cccc(C#Cc2cccc(OCc3ccccc3)c2)n1 | 1840 | –
COc1cccc(-c2cccc(C#Cc3cccc(C)n3)c2)c1 | 493 | 2360
COC(=O)c1cccc(C#Cc2cccc(C)n2)c1 | 208 | –
Cc1cccc(C#Cc2cccc(-c3ccccc3)c2)n1 | 629 | 993
COc1cccc(C(=O)Oc2cccc(C#Cc3cccc(C)n3)c2)c1 | 1720 | –
Cc1cccc(C#Cc2cccc(OC(=O)CCCBr)c2)n1 | 3350 | –
C=CCOc1cccc(C#Cc2cccc(C)n2)c1 | 290 | –
Cc1ccc(S(=O)(=O)Oc2cccc(C#Cc3cccc(C)n3)c2)cc1 | > 10000 | –
Cc1cccc(C#Cc2cncc(-c3cccs3)c2)n1 | 271 | 155
COc1cccc(COc2cccc(C#Cc3cccc(C)n3)c2)c1 | 1300 | –

— ChEMBL document CHEMBL1141902, “Functionalization at position 3 of the phenyl ring of the potent mGluR5 noncompetitive antagonists MPEP” (Bioorg Med Chem Lett, 2005)
